Measured values published in PMC11067372, “Evaluation of the antiplasmodial efficacy of synthetic 2,5-diphenyloxazole analogs of compounds naturally derived from Oxytropis lanata” (International Journal for Parasitology: Drugs and Drug …, 2024).

Key:
[1] = test system: P. falciparum K1; experiment: In vitro inhibition of P. falciparum K1 (SYBR Green I-based fluorescence assay); format: cell-based; conditions: Plasmodium falciparum; multidrug-resistant strain K1; 72 h incubation; average ± SD, three independent experiments; read-out: IC50 P. falciparum K1
Experimental: The cultures were maintained in an incubator under specific conditions: 37 °C under 5% CO2 and 5% O2.
The D-sorbitol method (CAS: 50-70-4, Wako, Osaka, Japan) was employed to synchronize parasites, resulting in the attainment of ≥90% ring-stage parasites. These synchronized parasites were then utilized for the experiments within a 2-h window. The assay was performed as follows. First, 50 μL of synchronized parasites with 0.5% parasitemia and 2% hematocrit were added to individual wells of a 96-well plate. Then, 50 μL of the test compounds was introduced to each well. […] Wells containing only test compounds and erythrocytes were included for background correction. […] After the designated incubation time, 100 μL of lysis buffer containing 0.02% (v/v) SYBR Green I was added to each well, the contents of the well were mixed by pipetting, and the plate was incubated in the dark at room temperature for 2 h. […] This assay was repeated four times at each concentration, and the resulting inhibitory values represent the average from three independent trials.
The IC50 or CC50 values were determined from three independent experiments by plotting the logarithmic concentration of the compound against the percent parasite inhibition or cell growth inhibition, respectively. Nonlinear regression analysis was conducted using GraphPad Prism 10 (GraphPad Software, Inc., La Jolla, CA, USA). Comparisons between groups were evaluated using either one-way or two-way ANOVA followed by Tukey's or Fisher's multiple comparisons tests. […] The meaning of each symbol is specified in the corresponding figure legend alongside the name of the employed test.

[2] = test system: P. falciparum 3D7; experiment: Stage-specific assay on ring and schizont stages (SYBR Green I, 24 h); format: cell-based, Plasmodium falciparum; conditions: eight concentrations from 100-fold IC50
Experimental: (§1) To ensure uniformity, the parasites underwent a rigorous synchronization process using a two-step sorbitol treatment procedure. This synchronized parasite population was harnessed within a 2-h window for the ring stage, 8–10 h for the trophozoite stage, and 24–26 h for the schizont stage. Subsequent to sorbitol treatment, early trophozoites could be obtained within 6–8 h after the initial sorbitol treatment (within 20 h of development), while early schizonts could be obtained after an additional 16 h of incubation (within 36 h of development). Beyond 36 h, the schizonts mature, causing the rupture of red blood cells (RBCs) and the consequent release of merozoites, which promptly infect new RBCs.
Wells containing only the test compounds and erythrocytes were included to correct for background activity. The 96-well plates were incubated for 24 h at 37 °C in an atmosphere of 5% CO2 and 5% O2. The growth of P. falciparum 3D7 was detected using a SYBR Green I-based fluorescence assay.

[3] = test system: P. falciparum 3D7; experiment: Stage-specific microscopy examination (ring, trophozoite, schizont); format: cell-based, Plasmodium falciparum; conditions: for Inhibition of the life cycle at 10- and 1-fold IC50: 24 h; for Parasite morphology after 24 h treatment: ring, trophozoite, schizont stages, artemisinin and chloroquine at all concentrations, Compounds 31 and 32 at 100 times IC50
Experimental: as §1
The negative control group consisted of cultures treated solely with complete medium and was designated the no treatment (NT) group. This analysis was repeated three times at each concentration. Following a 24-h incubation period, the culture in a 96-well plate was centrifuged at 1300 g for 5 min to settle down the iRBC; then, the supernatants were removed, and the iRBCs were washed with fresh media at the same volume as the initial culture. The centrifugation and washing were repeated 3 times, allowing the compound to be diluted by approximately 1000 times. Subsequently, thin blood smears from each treatment group were prepared using 1 μL of settled iRBCs. The proportion of parasites affected by the drug, including those with both abnormal and retained morphologies, was calculated by examining 100 parasites and counting the number displaying irregular development. Subsequently, the number of abnormal parasites was divided by the total count and then multiplied by 100 to obtain a percentage. The parameters used to define normal and abnormal morphologies can be found in Table S3 and Fig. S1.

[4] = test system: P. falciparum 3D7; experiment: 72-h compound exposure assay with wash-unwashed procedure (up to 144 h); format: cell-based, Plasmodium falciparum; conditions: for Parasitemia levels at 48 and 72 h compared to untreated controls: compound at IC80; for Cidal versus static effect: compound at IC80, up to 144 h, washed and unwashed groups
Experimental: In the 72-h compound exposure assay with the compound wash-unwashed procedure, parasites at the ring stage with 0.5% parasitemia and 2% hematocrit were employed. For this evaluation, Compounds 31 and 32 were used at concentrations equivalent to their respective IC80 values (Compound 31: 18.08 μM; hill slope 2.10, Compound 32: 11.74 μM; hill slope 2.02). These groups were considered the treated groups, while cultures with only complete medium served as untreated groups. The IC80 was used to allow observations of parasite morphology under incomplete inhibition, the potential emergence of abnormal morphologies, and the state of parasites following compound removal. This experimental setup was repeated three times for each concentration and time point. Thin blood smears were prepared from each treatment group at 1, 24, 48, or 72 h post incubation. In different culture sets, after 72 h of incubation, the medium was exchanged, and the compounds were subjected to three washes using fresh complete medium. Incubation was then continued either in the presence (unwashed group) or absence (washed group) of the test compounds for up to 144 h. Thin blood smears were consecutively prepared from each treatment group at 96, 120, and 144 h. The smears were visualized using a BZ-900 all-in-one microscope (Keyence BioRevo, Tokyo, Japan). Parasitemia levels were calculated by counting the number and determining the ratio of infected erythrocytes relative to the number of uninfected erythrocytes.

[5] = test system: P. yoelii 17XNL; format: in vivo; conditions: C57BL/6 mice, P. yoelii 17XNL; for Parasitemia compared to the untreated control group: 20 mg/kg daily over 10 days; for Body weight or hematocrit levels / Mortality / Peak of parasitemia, trial 1 / Peak of parasitemia, trial 2: 20 mg/kg i.p. once daily for ten days; for Peak of parasitemia, trial 1: untreated 21.7%; for Peak of parasitemia, trial 2: untreated 28.3%
Experimental: Male C57BL/6 mice, aged eight weeks, were obtained from Japan CLEA (Tokyo, Japan) and housed with six per cage in each group. These mice were kept under conditions of 24 °C, 50% relative humidity, and a light-dark cycle of 8 a.m. to 8 p.m. Access to drinking water and food (CLEA Rodent Diet CE-2; Japan CLEA, Tokyo, Japan) was unrestricted. Prior to experimentation, P. yoelii 17XNL was recovered from cryopreserved erythrocyte stocks via passage in mice. […]. Parasitemia levels were evaluated […] by collecting 2 μL of blood from the mouse tail for thin blood smear preparation. Treatment was initiated upon reaching a parasitemia level of 1%. […]. Parasitemia in infected mice was observed daily by preparing Giemsa-stained thin blood smears (up to 30 dpi). Hematocrit levels were measured every other day using a Celltac-α MEK-6550 (Nihon Kohden, Tokyo, Japan), with 10 μL of blood collected from the mouse tail for each assessment. The animals were handled and treated in accordance with the Guide for the Care and Use of Laboratory Animals by the Ministry of Education, Culture, Sports, Science, and Technology, Japan. Ethical permission for the animal experiment protocols was secured under permit numbers 21–35 and 23–90 from the ethical committee of Obihiro University of Agriculture and Veterinary Medicine.
The median point within this range was selected to maintain a balance between efficacy and safety. Furthermore, a modified Peter's suppression test was utilized to assess the efficacy of antimalarial drugs ([Ager, 1984]; [Peters et al., 1975]). The treatment and observation period were initially set for 4 days. […] […]. […] These findings highlight the effect of the 20 mg/kg/day dosage of Compounds 31 and 32 in reducing parasitemia without causing side effects.

[6] = Hemolysis rate; format: cell-based; conditions: erythrocytes (red blood cells)

SMILES	IC50 [1] [µM]	Stage specificity (ring and schizont stages) [2]	Inhibition of the life cycle at 10- and 1-fold IC50 [3]	Parasite morphology after 24 h treatment [3]	Parasitemia levels at 48 and 72 h compared to untreated controls [4]	Cidal versus static effect [4]	Parasitemia compared to the untreated control group [5]	Body weight or hematocrit levels [5]	Mortality [5]	Peak of parasitemia, trial 1 [5] [%]	Peak of parasitemia, trial 2 [5] [%]	hemolysis at 1000 µM [6] [%]
COc1cccc(-c2ncc(-c3ccccc3O)o2)c1OC [Compound 31, 2-(2′,3′-dimethoxyphenyl)-5-(2″-hydroxyphenyl)oxazole]	2.66 ± 1.15	classic slow-acting profile, which only gains significant activity at elevated concentrations	only partial inhibition of the life cycle	abnormal phenotype of ring-stage parasites	significantly lower parasitemia levels	possible cidal effect	significant reduction in parasitemia	nor were reductions in body weight or hematocrit levels observed	no instances of mortality	12.7	15.8	< 3
COc1cccc(-c2ncc(-c3ccccc3OCc3ccccc3)o2)c1OC [Compound 32, 2-(2′,3′-dimethoxyphenyl)-5-(2″-benzyloxyphenyl)oxazole]	4.37 ± 1.7	effect on the ring and schizont stages is comparable to those positive controls	only partial inhibition of the life cycle	abnormal phenotype of ring-stage parasites	significantly lower parasitemia levels	predominantly static effect	significant reduction in parasitemia	nor were reductions in body weight or hematocrit levels observed	no instances of mortality	12.7	14.0	< 3
